Results taken from patent publication US20220305144A1, “RADIOLIGANDS FOR IMAGING THE ID01 ENZYME” (Bristol-Myers Squibb Company, priority 2016, published 2022).
Entries after “also recorded” stand apart in the source; their conditions may differ.

Assays:
IDO1 [1] = target: T1, IDO1 (Mus musculus, UniProt P28776); test: In-vivo PET imaging in M109 xenograft mice at baseline and after treatment with an IDO1 inhibitor (Example 7); conditions: 6, 60, 150 mg/kg PO once daily for 5 days
T1 construct: The M109 tumor model is generated from a murine lung carcinoma cell line and expresses high levels of IDO1; from tissue; host or cells: subcutaneous M109 (murine lung carcinoma) tumours in BALB/c mice, imaged in vivo
Protocol: All mice underwent 2 separate PET scans. The first was a baseline PET scan before treatment began and the second was a post treatment scan with either the IDO1 inhibitor or vehicle. Treatment was administered PO once daily for 5 days with the last dose administered 2 hours prior to the post-treatment PET scan. […] There were no difference in tracer uptake at baseline in the M109 tumors between any of the groups.

IDO1 [2] = target: T1, IDO1; test: In-vivo PET imaging in M109 xenograft mice after treatment with the unlabeled IDO1 inhibitor (Example 6); conditions: 6, 60, 150 mg/kg PO once daily for 4 or 5 days
Protocol: Dosing and treatment was established based on known pharmacological effect and treatment was administered PO, once daily, for 4 or 5 days. All animals were received a PET scan post-treatment with the last dose of (R)—N-(4-chlorophenyl)-2-((1S,4)-4-(6-fluoroquinolin-4-yl)cyclohexyl)propanamide or vehicle administered 2 hours before PET imaging. […] The exact injected dose was calculated by subtracting the decay corrected activity of the residual in the syringe after injection from the total measured dose in the syringe prior to injection. For PET imaging, the mice were anesthetized with isoflurane and placed into a custom animal holder with capacity for 4 animals. Body temperature was maintained with a heating pad and anesthesia was maintained with 1.5% isoflurane for the duration of the imaging PET imaging was performed on a dedicated microPET® F120™ scanner and a F220™ scanner (Siemens Preclinical Solutions, Knoxville, Tenn.). A 10 minute transmission scan was performed using a ^57Co source for attenuation correction of the final PET images and followed by a 10 min static emission scan. Either before or after PET imaging a CT scan (X-SPECT, Gamma Medica) or MRI scan (Bruker) was performed for anatomical orientation during image analysis. PET images were reconstructed using a maximum a posteriori (MAP) algorithm with attenuation correction using the collected transmission images. Image analysis was performed using the image analysis software AMIDE PET images were co-registered with their corresponding CT or MRI images and regions of interest (ROIs) were manually drawn around tumor boundaries and muscle using the CT or MRI images as the anatomical guidelines. The outcome measure percentage injected dose/g tissue (% ID/g) was obtained from the ROIs volume and the calculated injected activity decay corrected to the beginning of the emission scan.

[3] = PET biodistribution in non-human primate (Example 9); assay type: in vivo; conditions: male cynomolgus monkey, 1.2 mCi i.v., 5 full body PET scans
Protocol: A male cynomolgus monkey (3.5 kg) was anesthetized via a cocktail of 0.02 mg/kg Atropine, and 5 mg/kg Telazol, 0.01 mg/kg Buprenorphine and maintained with 1-2% isoflurane for the duration of the study. Body temperature was maintained at ˜37° C. using an external circulating water bed to prevent hypothermia during imaging. The monkey was intubated and a saphenous vein catheter was inserted to allow for radiotracer injection. […] The axial field of view in the PET system is 7.6 cm. With this limitation, images were acquired over 7 distinct bed positions to cover the full body with an overlap of 1.5 cm between beds. Prior to emission imaging a 10 minute transmission image was acquired for each bed position for attenuation correction of the final PET images, immediately following collection of the final transmission image, the bed was returned to position 1 and the radiotracer was injected via the saphenous vein catheter concurrently with the start of the first emission scan. For emission, a total of 5 full body scans were acquired, using 5 min emission acquisitions for each bed position. Images were reconstructed using a MAP algorithm with attenuation correction. Bed positions were stitched together for a full body image using a stitching software tool developed in house and PET and MRI images were co-registered using AMIDE software. The final images were visually inspected to note areas of high tracer accumulation and evaluate biodistribution and background signal.

IDO1 [4] = target: T1, IDO1; test: Comparison of tracer uptake in high (M109) and low (CT26) IDO1 expressing tumor models (Example 8); assay type: in vivo; conditions: BALB/c mice given vehicle for 5 days, tracer i.v. 1 hour before PET, CT26 low IDO1 expression
Source text: In order to compare the ability to differentiate between differences in expression levels of IDO1 we imaged an additional mouse model carrying CT26 tumors. The CT26 tumor model is generated from a murine colorectal carcinoma cell line and expresses lower levels of IDO1 than the M109 model.

[5] = listed as 18F—(R)—N-(4-chlorophenyl)-2-((1S,4S)-4-(6-fluoroquinolin-4-yl)cyclohexyl)propan
[6] = listed as [^18F](R)—N-(4-chlorophenyl)-2-((1S,4S)-4-(6-fluoroquinolin-4-yl)cyclohexyl)prop

T1 sequence (P28776 whole entry): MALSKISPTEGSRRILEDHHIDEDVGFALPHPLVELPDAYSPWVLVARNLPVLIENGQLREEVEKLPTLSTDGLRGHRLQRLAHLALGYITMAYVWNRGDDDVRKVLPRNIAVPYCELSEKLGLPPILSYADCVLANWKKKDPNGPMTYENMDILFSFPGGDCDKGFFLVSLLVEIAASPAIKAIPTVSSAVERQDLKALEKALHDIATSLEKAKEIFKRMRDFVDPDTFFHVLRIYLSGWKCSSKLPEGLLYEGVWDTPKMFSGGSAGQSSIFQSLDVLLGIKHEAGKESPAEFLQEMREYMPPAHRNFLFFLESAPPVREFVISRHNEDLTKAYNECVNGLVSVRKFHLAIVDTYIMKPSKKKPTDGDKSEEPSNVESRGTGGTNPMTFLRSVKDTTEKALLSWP

Background signal in the rest of the body [3, 5]	Areas of tracer accumulation (biodistribution) [3, 6]	Background signal in the rest of the body [3, 6]	SMILES	Tracer uptake in muscle reference tissue, baseline vs post-treatment (IDO1 [1])	Tracer uptake in M109 tumors after treatment, compared to vehicle group and baseline (IDO1 [1]; last dose 2 hours before post-treatment PET scan)	Tracer uptake (% ID/g) in M109 tumors compared to vehicle (IDO1 [2]; last dose 2 hours before PET, [18F] tracer i.v. 1 hour before imaging)	Tracer uptake in muscle reference tissue (IDO1 [2]; muscle used as reference region for non-specific binding)	Areas of tracer accumulation (biodistribution) [3, 5]	Tracer uptake (% ID/g) in M109 tumors compared to CT26 tumors (IDO1 [4])
–	–	–	C[C@@H](C(=O)Nc1ccc(Cl)cc1)C1CCC(c2ccnc3ccc(F)cc23)CC1 (stereo partly drawn) [(R)—N-(4-chlorophenyl)-2-((1S,4S)-4-(6-fluoroquinolin-4-yl)cyclohexyl)propanamide]	unaffected by treatment	dose-dependent decrease in tracer uptake; also recorded: dose-dependent displacement of the tracer	dose-dependent decrease in tracer uptake; also recorded: dose-dependent displacement of the tracer	no effect on the tracer; also recorded: no effect on the uptake in muscle tissue	–	–
little to no background	accumulated in the liver and gallbladder	minimal	C[C@@H](C(=O)Nc1ccc(Cl)cc1)[C@H]1CC[C@@H](c2ccnc3ccc([18F])cc32)CC1 [Example 5, [^18F](R)—N-(4-chlorophenyl)-2-((1S, 4S)-4-(6-fluoroquinolin-4-yl)cyclohexyl)propanamide]	–	–	–	–	accumulated in expected clearance organs such as liver and gallbladder	higher % ID/g was observed in M109 mouse xenograft tumors compared to % ID/g in CT26 mouse xenograft tumors; also recorded: increased in M109 tumors
